Our source for the Ki values is patent US10160762B2, “6-alkyl dihydropyrazolopyrimidinone compounds as PDE2 inhibitors” (Merck Sharp & Dohme Corp., priority 2015, dated 2018).

Read-outs that look alike come from different tables or passages of the source.

In this assay the target is T1, Rhesus PDE2A3 (Macaca mulatta, UniProt B3VTJ2).
T1 construct: made in house; host or cells: AD293 cells, transient transfection; supernatant of sonicated lysate
T1 sequence (B3VTJ2 1-941): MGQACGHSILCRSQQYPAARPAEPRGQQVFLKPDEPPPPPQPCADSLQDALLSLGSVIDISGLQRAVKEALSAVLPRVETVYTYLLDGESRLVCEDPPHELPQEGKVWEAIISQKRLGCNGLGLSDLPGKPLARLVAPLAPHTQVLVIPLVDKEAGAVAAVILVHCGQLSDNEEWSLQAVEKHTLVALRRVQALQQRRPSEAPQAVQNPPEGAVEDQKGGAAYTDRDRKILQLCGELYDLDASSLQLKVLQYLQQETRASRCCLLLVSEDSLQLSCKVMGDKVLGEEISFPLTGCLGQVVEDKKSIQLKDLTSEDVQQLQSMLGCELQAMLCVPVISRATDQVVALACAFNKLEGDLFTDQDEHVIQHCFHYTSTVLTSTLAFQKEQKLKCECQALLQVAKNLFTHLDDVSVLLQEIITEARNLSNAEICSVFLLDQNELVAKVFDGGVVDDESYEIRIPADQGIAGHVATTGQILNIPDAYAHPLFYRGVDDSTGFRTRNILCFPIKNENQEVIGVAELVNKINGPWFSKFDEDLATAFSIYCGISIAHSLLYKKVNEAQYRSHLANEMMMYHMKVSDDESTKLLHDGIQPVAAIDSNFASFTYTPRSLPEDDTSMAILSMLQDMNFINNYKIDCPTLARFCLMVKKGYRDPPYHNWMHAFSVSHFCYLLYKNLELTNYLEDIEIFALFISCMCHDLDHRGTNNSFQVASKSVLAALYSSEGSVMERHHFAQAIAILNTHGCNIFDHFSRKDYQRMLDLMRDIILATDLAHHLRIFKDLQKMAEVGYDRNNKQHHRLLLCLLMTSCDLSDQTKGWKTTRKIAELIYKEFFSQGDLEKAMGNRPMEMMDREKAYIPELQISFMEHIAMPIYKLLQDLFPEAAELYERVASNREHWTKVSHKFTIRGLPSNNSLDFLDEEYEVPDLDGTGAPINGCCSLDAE
As to the kind of experiment: PDE2 fluorescence polarization (IMAP FP) inhibition assay, rhesus PDE2A3. The assay is classed as biochemical, rhesus macaque. The gist of the method:
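Enzyme source was the lysate supernatant of AD293 cells transiently expressing rhesus PDE2A3, diluted to give 20% conversion of 50 nM FAM-cAMP, with 1 µM cGMP as activator. Buffer was 10 mM Tris pH 7.2, 10 mM MgCl2, 1 mM DTT.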

Where [1] appears, read: Lab B, read-out: Rhesus PDE2 Ki (nM) Lab B.
[2] abbreviates: Lab A, read-out: Rhesus PDE2 Ki (nM) Lab A.

What is called Ki is a measure of affinity in units of concentration, obtained from inhibition or displacement. In the case of `Cc1nc2c(c(CF)nn2C(C)c2ccc(CC(F)(F)F)cc2)c(=O)[nH]1` (single isomer, unassigned) [Example 211, (S)- or (R)-3-(Fluoromethyl)-6-methyl-1-(1-(4-(2,2,2-trifluoroethyl)phenyl)ethyl)-1H-pyrazolo[3,4-d]pyrimidin-4(5H)-one], the Ki under setting [1] amounted to 0.49 nM.

Turning to `Cc1nc2c(c(C)nn2C(C)c2ccc(C(F)(F)F)cc2)c(=O)[nH]1` (single isomer, unassigned) [Example 37], the Ki under setting [2] amounted to 23 nM.

`Cc1nn(C(C)c2ccc(C(F)(F)F)cc2)c2nc(CF)[nH]c(=O)c12` (stereo not shown) [Example 51, 6-(Fluoromethyl)-3-methyl-1-{1-[4-(trifluoromethyl)phenyl]ethyl}-1,5-dihydro-4H-pyrazolo[3,4-d]pyrimidin-4-one]: the Ki under setting [2] came to 79 nM.

Take `COc1cccc(Cc2nc3c(c(C)nn3C(C)c3ccc(C(F)(F)F)cc3)c(=O)[nH]2)c1` (stereo not shown) [Example 45, 6-(3-Methoxybenzyl)-3-methyl-1-{1-[4-(trifluoromethyl)phenyl]ethyl}-1,5-dihydro-4H-pyrazolo[3,4-d]pyrimidin-4-one]: the Ki under setting [2] amounted to 26 nM.

With `Cc1nc2c(c(CO)nn2C(C)(C)c2ccc(C(F)(F)F)cc2)c(=O)[nH]1` [Example 9, 3-(Hydroxymethyl)-6-methyl-1-{1-methyl-1-[4-(trifluoromethyl)phenyl]ethyl}-1,5-dihydro-4H-pyrazolo[3,4-d]pyrimidin-4-one], the Ki reads like this: under setting [2], 54 nM; under setting [1], 56 nM.

`Cc1nc2c(c(CF)nn2C(C)c2ccc(OC(F)(F)F)c(F)c2)c(=O)[nH]1` (single isomer, unassigned) [Example 216, (R)- or (S)-1-(1-(3-Fluoro-4-(trifluoromethoxy)phenyl)ethyl)-3-(fluoromethyl)-6-methyl-1H-pyrazolo[3,4-d]pyrimidin-4(5H)-one]: the Ki came out at 19 nM under setting [2] and 41 nM under setting [1].

For `COCc1nc2c(c(CF)nn2C(C)c2ccc(C(F)(F)F)cc2)c(=O)[nH]1` (stereo not shown) [Example 205, 3-(Fluoromethyl)-6-(methoxymethyl)-1-{1-[4-(trifluoromethyl)phenyl]ethyl}-1,5-dihydro-4H-pyrazolo[3,4-d]pyrimidin-4-one], the Ki under setting [1] amounted to 3.2 nM.

Regarding `Cc1nn(C(C)c2ccc(C(F)(F)F)cc2)c2nc(-c3cnn(C)c3)[nH]c(=O)c12` (stereo not shown) [Example 53, 3-Methyl-6-(1-methyl-1H-pyrazol-4-yl)-1-{1-[4-(trifluoromethyl)phenyl]ethyl}-1,5-dihydro-4H-pyrazolo[3,4-d]pyrimidin-4-one], the Ki under setting [2] came to 29 nM.

Turning to `CCC(c1ccc(C(F)(F)F)cc1)n1nc(CO)c2c(=O)[nH]c(C)nc21` (single isomer, unassigned) [Example 132, (R)- or (S)-3-(Hydroxymethyl)-6-methyl-1-(1-(4-(trifluoro-methyl)phenyl)propyl)-1H-pyrazolo[3,4-d]pyrimidin-4(5H)-one], the Ki under setting [1] was found to be 1.5 nM.

As to `Cc1nc2c(c(CO)nn2[C@@H](C)c2ccc(OC(F)(F)F)cc2)c(=O)[nH]1` [Example 158, (S)-3-(Hydroxymethyl)-6-methyl-1-(1-(4-(trifluoromethoxy)phenyl)ethyl)-1H-pyrazolo[3,4-d]pyrimidin-4(5H)-one], the Ki under setting [1] came to 4.5 nM.

For `Cc1nc2c(c(CO)nn2C(c2ccc(C(F)(F)F)cc2)C(C)C)c(=O)[nH]1` (stereo not shown) [Example 5, 3-(Hydroxymethyl)-6-methyl-1-(2-methyl-1-(4-(trifluoromethyl)phenyl)propyl)-1H-pyrazolo[3,4-d]pyrimidin-4(5H)-one], the Ki runs as follows: under setting [2], 0.62 nM; under setting [1], 1 nM.

On to `Cc1nc2c(c(C(F)F)nn2C(C)c2ccc(C(F)(F)F)cc2)c(=O)[nH]1` (single isomer, unassigned) [Example 176], for which the Ki under setting [1] worked out at 1.4 nM.

Consider `COc1ccc(Cc2nc3c(c(C(F)F)nn3C(C)c3ccc(C(F)(F)F)cc3)c(=O)[nH]2)cc1OC` (single isomer, unassigned) [Example 197], for which the Ki under setting [1] is around 0.15 nM.
